Results from patent US20230089530A1, “QUINUCLIDINONE ANALOGUES AS ANTICANCER AGENTS” (Newave Pharmaceutical Inc., priority 2020, published 2023).

Legend:
[1] = test system: RS4;11(G101V) cancer cells; assay: In vitro anti-proliferation assay in RS4;11 cell line with G101V mutation (ATPlite luminescence); assay type: cell-based; conditions: about 72 hours incubation, medium supplemented with 5% FBS or 10% normal human serum
Experimental: Biological Example 1: In Vitro Anti-Proliferation Assay in BCL-2-Dependent Acute Lymphoblastic Leukemia (ALL) Cell Line RS4;11 with G101V Mutation
(§1) The RS4;11 cell line used herein was engineered to stably overexpress the G101V mutant form of human Bcl-2. The cell antiproliferation was assayed by PerkinElmer ATPlite™ Luminescence Assay System. Briefly, the RS4;11(G101V) cancer cells were plated at a density of about 1×10^4 cells per well in Costar 96-well plates, and were incubated with different concentrations of compounds for about 72 hours in medium supplemented with 5% FBS or 10% normal human serum (NHS). One lyophilized substrate solution vial was then reconstituted by adding 5 mL of substrate buffer solution, and was agitated gently until the solution was homogeneous. About 50 μL of mammalian cell lysis solution was added to 100 μL of cell suspension per well of a microplate, and the plate was shaken for about five minutes in an orbital shaker at ˜700 rpm. This procedure was used to lyse the cells and to stabilize the ATP. Next, 50 μL substrate solution was added to the wells and microplate was shaken for five minutes in an orbital shaker at ˜700 rpm. Finally, the luminescence was measured by a PerkinElmer TopCount® Microplate Scintillation Counter. Such assays, carried out with a range of doses of test compounds, allowed the determination of the cellular anti-antiproliferative IC50 of the compounds of the present invention. The following table lists the IC50 values of certain compounds of the invention.

RS4;11-G101V cell line = assay: Another in vitro anti-proliferation assay in RS4;11-G101V cell line; assay type: cell-based, human
Experimental: as §1
The following table lists the IC50 values of another in vitro anti-proliferation assay in RS4;11-G101V cell line.

Mice PK study = assay type: in vivo; conditions: CD-1 mouse
Experimental: The pharmacokinetics of compounds were evaluated in CD-1 mouse via Intravenous and Oral Administration. The IV dose was administered as a slow bolus in the Jugular vein, and oral doses were administered by gavage. The formulation for IV dosing was 5% DMSO in 20% HPBCD in water, and the PO formulation was 2.5% DMSO, 10% EtOH, 20% Cremphor EL, 67.5% D5W. The PK time point for the IV arm was 5, 15, 30 min, 1, 2, 4, 6, 8, 12, 24 hours post dose, and for PO arm was 15, 30 min, 1, 2, 4, 6, 8, 12, 24 hours post dose. Approximately 0.03 mL blood was collected at each time point. Blood of each sample was transferred into plastic micro centrifuge tubes containing EDTA-K2 and collect plasma within 15 min by centrifugation at 4000 g for 5 minutes in a 4° C. centrifuge. Plasma samples were stored in polypropylene tubes. The samples were stored in a freezer at −75±15° C. prior to analysis. Concentrations of compounds in the plasma samples were analyzed using a LC-MS/MS method. WinNonlin (Phoenix™, version 6.1) or other similar software was used for pharmacokinetic calculations. The following pharmacokinetic parameters were calculated, whenever possible from the plasma concentration versus time data: IV administration: C0, CL, Vd, T1/2, AUCinf, AUClast, MRT, Number of Points for Regression; PO administration: Cmax, Tmax, T1/2, AUCinf, AUClast, F %, Number of Points for Regression. The pharmacokinetic data was described using descriptive statistics such as mean, standard deviation.

Compound	IC50 ([1]; Homo sapiens, RS4-11, 72 h)	IC50 [1]	other results
COC[C@@]1(CO)C(=O)C2(C)CCN1CC2 (single isomer, unassigned) [Example 3 (isomer 1)]	< 5 µM	–	–
COC[C@@]1(CO)C(=O)C2(C)CCN1CC2 (single isomer, unassigned) [Example 3 (isomer 2)]	–	> 5 µM	–
CCC12CCN(CC1)[C@@](CO)(COC)C2=O (single isomer, unassigned) [Example 6(isomer 1)]	< 5 µM	–	–
CCC12CCN(CC1)[C@](CO)(COC)C2=O (single isomer, unassigned) [Example 6(isomer 2)]	< 5 µM	–	–
CCOC[C@@]1(CO)C(=O)C2(C)CCN1CC2 (single isomer, unassigned) [Example 7(isomer 1)]	< 5 µM	–	–
CCOC[C@]1(CO)C(=O)C2(C)CCN1CC2 (single isomer, unassigned) [Example 7(isomer 2)]	< 5 µM	–	–
CC(C)OCC1(CO)C(=O)C2(C)CCN1CC2 (single isomer, unassigned) [Example 8(isomer 1), 2-(hydroxymethyl)-2-(isopropoxymethyl)-4-methyl-1-azabicyclo[2.2.2]octan-3-one]	< 5 µM	–	–
CC(C)OCC1(CO)C(=O)C2(C)CCN1CC2 (single isomer, unassigned) [Example 8(isomer 2), 2-(hydroxymethyl)-2-(isopropoxymethyl)-4-methyl-1-azabicyclo[2.2.2]octan-3-one]	–	< 5 µM	–
COCC1(CO)C(=O)C2CCN1CC2 (stereo not shown) [APR-246, reference compound]	–	< 5 µM	IC50 (RS4;11-G101V cell line): 1.76 µM
COCC1(CO)C(=O)C2(C)CCN1CC2 (stereo not shown) [Example 2, 2-(hydroxymethyl)-2-(methoxymethyl)-4-methyl-1-azabicyclo[2.2.2]octan-3-one]	< 5 µM	–	–
CC12CCN(CC1)C(CO)(CO)C2=O [Example 4, 2,2-bis(hydroxymethyl)-4-methyl-1-azabicyclo[2.2.2]octan-3-one]	> 5 µM	–	–
COCC1(CO)C(=O)C2(C(C)C)CCN1CC2 (stereo not shown) [Example 5, 2-(hydroxymethyl)-4-isopropyl-2-(methoxymethyl)-1-azabicyclo[2.2.2]octan-3-one]	< 5 µM	–	–
COCC1(CO)C(=O)C2(F)CCN1CC2 (stereo not shown) [Example 9, 4-fluoro-2-(hydroxymethyl)-2-(methoxymethyl)-1-azabicyclo[2.2.2]octan-3-one]	> 5 µM	–	–
COCC1(CO)C(=O)C2(C(F)(F)F)CCN1CC2 (stereo not shown) [Example 10, 2-(hydroxymethyl)-2-(methoxymethyl)-4-(trifluoromethyl)-1-azabicyclo[2.2.2]octan-3-one]	> 5 µM	–	–
COC[C@]1(CO)C(=O)[C@H]2CC[N@]1[C@H](C)C2 [Example 15, (1R,2R,4S,6R)-2-(hydroxymethyl)-2-(methoxymethyl)-6-methylquinuclidin-3-one]	–	< 5 µM	bioavailability (in words) (Mice PK study): excellent bioavailability; Bioavailabilty (Mice PK study; Oral, 100 mpk): 79%; AUClas (Mice PK study; Oral, 100 mpk, plasma): 26,093 h*ng/mL; IC50 (RS4;11-G101V cell line): 0.73 µM; potency compared with reference compound APR-246 (RS4;11-G101V cell line): more potent than the reference compound APR-246
COC[C@@]1(CO)C(=O)[C@@H]2CC[N@@]1[C@@H](C)C2 [Example 16, (1S,2S,4R,6S)-2-(hydroxymethyl)-2-(methoxymethyl)-6-methylquinuclidin-3-one]	–	< 5 µM	–
